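Growth conditions: 96-well plates. Treatment: test compound, 48 hours, 5 concentrations. Analysis: linear interpolation between bracketing concentrations; unreached endpoints set to highest concentration. Here, GI50 denotes the concentration required for 50% inhibition of growth. TGI is the concentration that stops growth completely.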
How the values were obtained:
Test in all cases: NCI anticancer screen, dose series, 48 h
786-0 renal = test system: 786-0 renal
A549 NSCLC = test system: A549 NSCLC
EKVX NSCLC = test system: EKVX NSCLC
HOP-62 NSCLC = test system: HOP-62 NSCLC
HOP-92 NSCLC = test system: HOP-92 NSCLC
K-562 leukemia = test system: K-562 leukemia
MDA-MB-435 = test system: MDA-MB-435
NCI-H226 lung = test system: NCI-H226 lung
RPMI-8226 leukemia = test system: RPMI-8226 leukemia
SK-MEL-2 melanoma = test system: SK-MEL-2 melanoma
SN12C renal = test system: SN12C renal

| SMILES | TGI (786-0 renal) [µM] | TGI (A549 NSCLC) [µM] | TGI (EKVX NSCLC) [µM] | TGI (HOP-62 NSCLC) [µM] | TGI (HOP-92 NSCLC) [µM] | TGI (K-562 leukemia) [µM] | TGI (MDA-MB-435) [µM] | TGI (NCI-H226 lung) [µM] | TGI (RPMI-8226 leukemia) [µM] | TGI (SK-MEL-2 melanoma) [µM] | TGI (SN12C renal) [µM] | GI50 (HOP-92 NSCLC) [µM] |
| --- | --- | --- | --- | --- | --- | --- | --- | --- | --- | --- | --- | --- |
| COC(=O)N[C@@H]1C[C@H]2CC[C@]1(O[Si](C(C)C)(C(C)C)C(C)C)C(=O)C2 | 69 | 55.7 | 31.8 | 46.4 | 70.6 | > 100 | 41.6 | 33 | 69.8 | 35.3 | > 100 |  |
| CC1(C)CCCCCC(O)C(O)CCC(C)(C)C1=O (stereo not given) | > 100 | > 100 | > 100 | > 100 | > 100 | > 100 | > 100 | > 100 | > 100 | > 100 | > 100 |  |
| NC(=Nc1ccccc1)N/N=C/c1c[nH]c2ccccc12 | 7.68 | 15.4 | 25 | 9.47 | 6.01 | 30.4 | 0.0649 | 16.1 | 46 | 4.95 | 15.6 |  |
| CCCCCc1cc2cc3c(c(O)c2c(=O)[nH]1)C1(CCC3)C(=O)c2c(O)ccc(O)c2C1=O | > 100 | > 100 | > 100 | > 100 | > 100 | > 100 | > 100 | > 100 | > 100 | > 100 | > 100 |  |
| COC(=O)NC(Cc1ccccc1)NC(=O)OC(C)(C)C (stereo not given) | > 100 | > 100 | > 100 | > 100 | > 100 | > 100 | > 100 | > 100 | > 100 | > 100 | > 100 |  |
| Cc1ccc(C)n1-c1ccccc1C1C=Cn2c(=O)oc3c(OC(C)C)c(OC(C)C)c(O)c1c32 (stereo not given) | > 100 | > 100 | > 100 | > 100 | > 100 | > 100 | 38.6 | 36.1 | > 100 | 78.2 | > 100 |  |
| COc1cc2nc(-c3cccs3)nc(N3CCN(c4ccccc4)CC3)c2cc1OC | > 100 | > 100 | > 100 | > 100 | > 100 | > 100 | > 100 | > 100 | > 100 | > 100 | > 100 |  |
| COc1cc(C2c3cccc4cccc(c34)C3CCC(=O)N32)cc(OC)c1O (stereo not given) | > 50 | > 50 | > 50 | > 50 | > 50 | > 50 | > 50 | > 50 | > 50 | > 50 | > 50 |  |
| CCOP(=O)(OCC)/C(=C/n1c(=S)[nH]c2ccccc21)C(=O)OC | > 100 | > 100 | > 100 | > 100 | > 100 | > 100 | > 100 | > 100 | > 100 | > 100 | > 100 | > 100 |
| COC1C(O)C(C)OC(O[C@H]2CC[C@@]3(C)C(CC[C@@H]4[C@@H]3CC[C@]3(C)[C@@H](C(C)OC5OC(CO)C(O)C(O)C5O)CC[C@]43O)C2)C1O (stereo not given in full) | > 25 | > 25 | > 25 | > 25 | > 25 | > 25 | > 25 | > 25 | > 25 | > 25 | > 25 |  |
| CC1(C)CC(=O)c2c(N)n[nH]c2C1 | > 100 | > 100 | > 100 | > 100 | > 100 | > 100 | > 100 | > 100 | > 100 | > 100 | > 100 |  |
| COC(=O)/C=C1\C(CO[Si](C)(C)C(C)(C)C)OC(n2cc(C)c(=O)n(C)c2=O)C1O[Si](C)(C)C(C)(C)C (stereo not given) | > 100 | > 100 | > 100 | > 100 | > 100 | > 100 | > 100 | > 100 | > 100 | > 100 | > 100 |  |
| [N-]=[N+]=Nc1cc(=O)[nH]c2ccccc12 | > 100 | > 100 | 42.5 | > 100 | > 100 | > 100 | > 100 | > 100 | > 100 | > 100 | > 100 |  |
| CC1(C)C2CC3C(C)(C2)C31c1cc(Cl)ccc1N (stereo not given) | 28.6 | 24.2 | 33 | 29.4 | 28.6 | 23.5 | 25.1 | 34.6 | 30 | 29.4 | 27.5 |  |
| CCCCCCCCCCCC(=O)N(CCCCCCCCC)CC(O)C(O)C(OC1OC(CO)C(O)C(O)C1O)C(O)CO (stereo not given) | 32.8 | 43.5 | 31.5 | 38.9 | 34.4 | 50.2 | 32 | 37.8 | 57.1 | 43.9 | 36.1 |  |
| COc1cc(C(c2ccccc2)N2C(=O)CC[C@H]2C(=O)O)cc(OC)c1OC (stereo not given in full) | > 100 | > 100 | > 100 | > 100 | > 100 | > 100 | > 100 | > 100 | > 100 | > 100 | > 100 |  |
| COc1ccc(C2N(c3ccc(C)c(N=C=O)c3)C(=O)N3C(c4ccc(OC)cc4)N(c4ccc(C)c(N=C=O)c4)C(=O)N23)cc1 (stereo not given) | > 100 | > 100 | > 100 | > 100 | > 100 | > 100 | > 100 | > 100 | > 100 | > 100 | > 100 |  |
| O=S(=O)(O)c1ccc(O)c(N=Nc2c(O)ccc3ccccc23)c1 | > 100 | > 100 | > 100 | > 100 | > 100 | > 100 | > 100 | > 100 | > 100 | > 100 | > 100 |  |
| c1ccc2c(c1)nnn2C1CCCCO1 (stereo not given) | > 100 | > 100 | > 100 | > 100 | > 100 | > 100 | > 100 | > 100 | > 100 | > 100 | > 100 |  |
